Values joined by “and” are separate entries in the source; they are usually repeats but may differ in a detail not shown here. Equal entries are not always repeated.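 Interpolation was linear, between the two tested concentrations surrounding the appropriate level; five concentrations were tested over 48 hours in 96-well plates. At the TGI there is no net growth.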
Key:
Assay in all cases: NCI anticancer screen, dose series, 48 h
[1] = system: HCT-15 colon
[2] = system: HOP-92 NSCLC
[3] = system: MDA-MB-435
[4] = system: K-562 leukemia
[5] = system: 786-0 renal
[6] = system: NCI/ADR-RES ovarian
[7] = system: MALME-3M melanoma
[8] = system: SK-MEL-5 melanoma
[9] = system: SF-539 CNS
[10] = system: OVCAR-8 ovarian
[11] = system: UO-31 renal
[12] = system: KM12 colon
[13] = system: NCI-H226 lung
[14] = system: HCT-116 colon

SMILES | TGI [1] [µM] | TGI [2] [µM] | TGI [3] [µM] | TGI [4] [µM] | TGI [5] [µM] | TGI [6] [µM] | TGI [7] | TGI [8] [µM] | TGI [9] [µM] | TGI [10] [µM] | TGI [11] [µM] | TGI [12] [µM] | TGI [13] [µM] | TGI [14] [µM]
COC(=O)C(CCc1ccccc1I)C1=CCC2(CC1)OCCO2 (configuration not stated) | > 100 | > 100 | 87.7 | > 100 | > 100 | > 100 | > 100 µM | 40 | > 100 | > 100 | 76.2 | > 100 | > 100 | 
O=c1[nH]nc(-c2ccccc2)n1/N=C/c1ccncc1 | > 100 | > 100 | > 100 | > 100 | > 100 | > 100 | > 100 µM | > 100 | > 100 | > 100 | > 100 | > 100 | > 100 | > 100
O=C1C(NCCc2ccc(O)c(O)c2)=CC(=O)c2ncccc21 | 55.7 | 54.3 | 3.28 | 20.2 | 43.2 | 25.1 | 18.4 µM | 15.4 | 30.1 | 57.3 | 24.4 | 30.5 | 30.5 | 29
Clc1nc(Cl)c(Cl)c(Cl)n1 | 38.1 | 56.4 | > 61 | 28 | 41.4 | 59.4 | 35.9 µM | 32.2 | 47.9 | 80.2 | 46.4 | 28.9 | 42.8 | 38.2
CNc1ccc(-c2nc3cc(C)ccc3o2)cc1 | > 100 | > 100 | > 100 | > 100 | > 100 | > 100 | > 100 µM | > 100 | > 100 | > 100 | > 100 | > 100 | > 100 | > 100
O=C1Sc2ccc(Br)cc2C(=O)Sc2ccccc21 | 46.5 | 33.6 | 21.7 | > 59.3 | 25.6 | 60 | 23.6 µM | 29.5 | 26.4 | 24 | 27.1 | 33.8 | 44.5 | 26.9
N#Cc1c(SCc2ccccc2)nc(-c2ccccc2)[nH]c1=S | 50.4 | 85.7 | 61.3 | > 100 | 48 | 67.4 | > 100 µM | 54.8 | 56.6 | 76.7 | 35 | 34.5 | 70.3 | 51.8
c1ccc(-c2sc(-c3cccs3)cc2Cc2cccs2)cc1 | > 10 | > 10 | > 10 | > 10 | > 10 | > 10 | > 10 µM | > 10 | > 10 | > 10 | > 10 | > 10 | > 10 | > 10
COC(=O)C(C)(N=Cc1ccccc1)c1ccccc1 (configuration not stated) | > 100 | > 100 | > 100 | > 100 | > 100 | > 100 | > 100 µM | > 100 | > 100 | > 100 | > 100 | > 100 | > 100 | > 100
CCOc1cc(NC(C)=O)ccc1C(=O)NN1C(=O)C(Oc2ccccc2)C1c1ccccc1 (configuration not stated) | > 100 | > 100 | > 100 | > 100 | > 100 | > 100 | > 100 µM | > 100 | > 100 | > 100 |  | > 100 | > 100 | > 100
CC(=O)N1CCc2c([nH]c3ccc(Br)cc23)C1c1ccccc1 (configuration not stated) | > 10 | > 10 | > 10 | > 10 | > 10 | > 10 | > 10 µM | > 10 | > 10 | > 10 | > 10 | > 10 | > 10 | > 10
O=C1NC(N/N=C\C(O)C(O)C(O)CO)=N/C1=C/c1ccc(Cl)cc1 (configuration not stated) | 52.8 | > 100 | > 100 | > 100 | > 100 | > 100 | 80.2 µM and > 100 µM | > 100 | > 100 | > 100 | > 100 | > 100 | > 100 | > 100
CC(C)SC(C)(NC(=O)C1C(C)(C)CCC1(C)C)C(=O)O (configuration not stated) | > 100 | > 100 | > 100 | > 100 | > 100 | > 100 |  | > 100 | > 100 |  | > 100 |  | > 100 | > 100
CCOC(=O)Nc1c(C#N)[n+]([O-])c2cc(Cl)c(Cl)cc2[n+]1[O-] | 25.8 | 23 | 36.6 | 39.9 | 41.7 | 52.2 | 37.6 µM | 24.9 | 30.9 | 37.2 | 31.4 | 64.8 | 42.9 | 59.3
O=C(Nc1nc2c(=O)[nH]cnc2s1)c1ccccc1 | > 100 | > 100 | > 100 | > 100 | > 100 | > 100 | > 100 µM | > 100 | > 100 | > 100 | > 100 |  | > 100 | > 100
CC1(C)[C@@H](Cn2cnc3c(N)ncnc32)CC[C@@]1(C)CO | > 100 | > 100 | > 100 | > 100 | > 100 | > 100 | > 100 µM | > 100 |  | > 100 | > 100 | > 100 | > 100 | > 100

— PubChem BioAssay (NCI)
